# Measurements taken from PubChem BioAssay (NCI).
# Values joined by “and” are separate entries in the source; they are usually repeats but may differ in a detail not shown here. Equal values may be shown once.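 All cell lines were grown in 96-well plates and treated with compound for 48 hours. The concentration for 50% growth inhibition is given as GI50. TGI marks complete inhibition of growth.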
# Key:
# Assay in all cases: inhibition of tumour cell growth, NCI panel, 48 h
# COLO 205 colon = test system: COLO 205 colon
# EKVX NSCLC = test system: EKVX NSCLC
# HOP-62 NSCLC = test system: HOP-62 NSCLC
# MOLT-4 leukemia = test system: MOLT-4 leukemia
# RXF 393 renal = test system: RXF 393 renal
# SF-268 CNS = test system: SF-268 CNS
# SK-MEL-2 melanoma = test system: SK-MEL-2 melanoma
# HOP-92 NSCLC = test system: HOP-92 NSCLC
# NCI-H522 lung = test system: NCI-H522 lung
# HCC-2998 colon = test system: HCC-2998 colon
SMILES,TGI (COLO 205 colon) [µM],TGI (EKVX NSCLC) [µM],TGI (HOP-62 NSCLC) [µM],TGI (MOLT-4 leukemia) [µM],TGI (RXF 393 renal) [µM],TGI (SF-268 CNS) [µM],TGI (SK-MEL-2 melanoma) [µM],TGI (HOP-92 NSCLC) [µM],TGI (NCI-H522 lung) [µM],GI50 (HCC-2998 colon),TGI (HCC-2998 colon),GI50 (MOLT-4 leukemia),GI50 (NCI-H522 lung) [µM],GI50 (RXF 393 renal) [µM],GI50 (SF-268 CNS) [µM],GI50 (COLO 205 colon) [µM],GI50 (EKVX NSCLC) [µM],GI50 (HOP-62 NSCLC) [µM],GI50 (HOP-92 NSCLC) [µM],GI50 (SK-MEL-2 melanoma) [µM]
OC(COC(c1ccccc1)(c1ccccc1)c1ccccc1)C(O)CC1SCCS1 (stereo unspecified),38.4,30.7,30.7,68.7,32.1,50.9,34.3,,,,,,,,,,,,,
O=C(CCCN1CCC(O)(c2ccc(Cl)cc2)CC1)c1ccc(F)cc1,43.2,> 100,> 100,> 100,,> 100,39.5,> 100,39.5,,,,,,,,,,,
CCCCCCCCCCCCCC[N+](C)(C)CCCCCCCCCCCCCC,,,,6.44,2.78,8.38,,,5.17,2.26 µM,5.28 µM,2.41 µM,1.93,1.28,2.92,,,,,
COc1ccc2c(c1OC)CO[C@@H]2[C@H]1c2c(cc3c(c2OC)OCO3)CCN1S(=O)(=O)c1cn(C)cn1,11.6,> 100,> 100,> 100,,> 100,> 100,87.4,8.32,3.23 µM,> 100 µM,3.84 µM,0.427,,5.64,1.72,13.1,1.88,0.783,2.17
CC(N)(Cc1c[nH]c2cccc(F)c12)C(=O)O (stereo unspecified),,> 1000,> 1000,> 1000,> 1000,> 1000,,> 1000,> 1000,> 1000 µM,> 1000 µM,> 1000 µM,> 1000,> 1000,> 1000,,> 1000,645,,
COc1cc(/C=N/Nc2ncnc3c2cnn3-c2ccccc2)ccc1O,> 25,> 25,> 25,> 25,> 25,> 25,20.6,,> 17.3,21.6 µM,> 25 µM,> 25 µM,2.27,4.33,> 18.4,> 14.6,> 25,16.9,,5.85
COc1ccc(Cc2coc3ccccc3c2=O)cc1OC,> 100,> 100,> 100,> 100,> 100,> 100,> 100,> 100,> 100,,,,,,,,,,,
CCOC(=O)C(=O)CC1=Nc2ccccc2SC(c2cccc(C)c2)C1 (stereo unspecified),,40.4,49.4,47.9,,32.2,30.5,32,32.8,,31.3 µM,,,,,,,,,
CCCCCCCCCCCCCCCCCCn1cc[n+](C)c1,1.28,,,,1.54,,,2.62,,0.303 µM and 0.192 µM,1.26 µM and 0.913 µM,0.189 µM and 0.65 µM,,0.451,,0.35,,,0.35,
O=C(/C=C\c1ccc([N+](=O)[O-])cc1)c1ccccc(=O)c1O,0.967,11.9,15.5,> 21.8,,37.3,6.93,7.77,6.63,,5.6 µM,,,,,,,,,
